Entries after “also recorded” stand apart in the source; their conditions may differ.
Experiments:
[1] = test system: differentiated SHSY-5Y cells; assay: Gingipain-induced death of differentiated SH-SY5Y cells; type: cell-based; settings: 100 nM Kgp and/or RgpB for 24 hours
Description: SH-SY5Y neuroblastoma cells were cultured and differentiated in the presence of 5 uM retinoic acid based on established methods [Saberi S., et al. Cell Mol Neurobiol 2013. 33: 747-751]. Differentiation into neuronal cells was verified by observation of neurite outgrowth. The differentiated cells were exposed to 100 nM Kgp and/or RgpB for 24 hours, in the presence or absence of Kgp inhibitors. Results were recorded using a digital microscope camera (FIG. 1C, FIG. 2C). Gingipains are toxic to cells while COR compounds prevent the cytotoxicity.

abeta 42 = assay: Brain abeta 42 ELISA in mice orally infected with P. gingivalis; type: in vivo; settings: Balb/cJ mice, oral W83 P. gingivalis for 42 days; compound subcutaneously three times per day on days 21-42
Source text: Female Balb/cJ mice were obtained from Taconic and allowed to acclimate. 43-44 week old mice were challenged orally with 10^9 CFU W83 P. gingivalis or a P. gingivalis strain lacking expression of Kgp every other day for 42 days. Compound 2 or vehicle (2% DMSO) was given subcutaneously three times per day on days 21-42. On day 42 mice were sacrificed and the brain removed and frozen. A sample including hippocampal tissue was lysed in RIPA buffer with protease inhibitors and analyzed for Abeta42 expression with the Amyloid beta 42 ELISA Kit, Mouse (Life Technologies).

lysine gingipain (Kgp) = lysine gingipain (Kgp) (Porphyromonas gingivalis (strain ATCC 33277 / DSM 20709 / CIP 103683 / JCM 12257 / NCTC 11834 / 2561), UniProt B2RLK2); assay: Fluorogenic lysine gingipain inhibition assay; type: biochemical; settings: 0.1 nM Kgp, 10 uM Z-His-Glu-Lys-MCA, 90 minutes, 37° C., pH 7.5
Description: The capacities of compounds of the present invention to inhibit the activity of lysine gingipain were measured in a fluorogenic assay similar to those described in Barret Biochemical Journal. 1980, 187(3), 909. The specific assay conditions were as follows. Buffer: pH=7.5, 100 mM Tris-HCl, 75 mM NaCl, 2.5 mM CaCl2, 10 mM cysteine, 1% DMSO after all additions. Protein: 0.1 nM Kgp, isolated from culture of Porphyromonas gingivalis, as described in Pike et al. J. Biol. Chem. 1994, 269(1), 406, and Potempa and Nguyen. Current Protocols in Protein Scienc. 2007, 21.20.1-21.20.27. Fluorogenic substrate: 10 uM Z-His-Glu-Lys-MCA. Time=90 minutes. Temperature=37° C. Each compound: 10 concentrations, starting at either 100 uM or 100 nM, with lower concentrations generated by serial 3-fold dilutions. By testing a range of concentrations for each compound, the concentration required to inhibit the activity of lysine gingipain by 50% (the “IC50”) was determined. Under the described assay conditions, signal-to-noise was excellent, and Z factor was greater than 0.6.
The inhibitory of activity of compounds described herein was tested against Kgp, RgpB, and trypsin.

SHSY5Y cells = assay: P. gingivalis-induced toxicity in SHSY5Y cells; type: cell-based; settings: SHSY5Y cells in vitro, compared to the antibiotic moxifloxacin

## NCCCC[C@H](NC(=O)c1ccccc1)C(=O)c1nc2ccccc2s1 [Compound 1, N-[(1S)-5-amino-1-(1,3-benzothiazole-2-carbonyl)pentyl]benzamide]
[1]
  prevention of gingipain-induced cell death: prevents gingipain-induced death; also recorded: effective at preventing cell death

## NCCCC[C@H](NC(=O)C1CCCCC1)C(=O)c1nc2ccccc2s1 [Compound 2, N-[(1S)-5-amino-1-(1,3-benzothiazole-2-carbonyl)pentyl]cyclohexanecarboxamide]
Abeta 42
  brain levels of abeta 42 (ELISA): resolved; also recorded: increase in abeta42 that was not apparently
[1]
  prevention of gingipain-induced cell death: prevents gingipain-induced death; also recorded: more effective; also recorded: effective at preventing cell death

## NCCCC[C@H](NC(=O)[C@H]1CCCN(C(=O)CCc2ccccc2)C1)C(=O)c1nc2ccccc2s1 [Compound 3, (3S)—N-[(1S)-5-amino-1-(1,3-benzothiazole-2-carbonyl)pentyl]-1-(3-phenylpropanoyl)piperidine-3-carboxamide]
[1]
  prevention of gingipain-induced cell death: does not

## NCCCC[C@H](NC(=O)[C@@H]1CCCN(C(=O)CCc2ccccc2)C1)C(=O)c1nc2ccccc2s1 [Compound 4, (3R)—N-[(1S)-5-amino-1-(1,3-benzothiazole-2-carbonyl)pentyl]-1-(3-phenylpropanoyl)piperidine-3-carboxamide]
Lysine gingipain (Kgp)
  IC50: 1 to 10 nM
[1]
  prevention of gingipain-induced cell death: prevents gingipain-induced death
[1]; listed as 2-(N—[N-(3-phenylpropanoyl)-(R)-nipecotinyl]-(R)-lysinyl)-benzothiazole
  prevention of gingipain-induced cell death: effective at preventing cell death

## NCCCC[C@H](NC(=O)C1CCCC1)C(=O)COc1c(F)c(F)cc(F)c1F [Compound 43, N-[(1S)-5-amino-1-[2-(2,3,5,6-tetrafluorophenoxy)acetyl]pentyl]cyclopentanecarboxamide]
SHSY5Y cells
  protection from P. gingivalis-induced toxicity: protects SHSY5Y cells from P. gingivalis-induced toxicity

From patent publication US10676470B2, “Inhibitors of lysine gingipain” (priority 2014, dated 2020)
